The record followed here is patent US12157730B2, “Heteroaryl derivative, method for producing same, and pharmaceutical composition comprising same as effective component” (VORONOI INC., priority 2019, dated 2024).

The assay deals with T1, Ba/F3 cell EGFR Exon20 ins NPH (Homo sapiens, UniProt P00533, INS773NPH).
T1 construct: expressed in transfected cells; host or cells: Ba/F3
The assay can be described thus: Ba/F3 cell proliferation suppression, EGFR Exon20 ins NPH. The format is cell-based. The conditions noted are these: GI50 class; Ba/F3 cell line with NPH inserted at Exon20 of EGFR; 72 hours. Put shortly: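 Growth suppression determined as GI50 following 72 h exposure across 12 concentrations up to 50 um, with viability by luminescent ATP assay (CellTiter-Glo).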
Consider `C=CC(=O)Nc1cc(Nc2cc(N3OCC[C@@H]3c3ccccc3)ncn2)c(OC)cc1N1CCC(N(C)CCN(C)C)CC1` [compound 735, N-(2-(4-((2-(dimethylamino)ethyl) (methyl)amino)piperidine-1-yl)-4-methoxy-5-((6-((R)-3-phenylisoxazolidine-2-yl)pyrimidine-4-yl)amino)phenyl) acrylamide], for which the “Ba/F3 (NPH) Activity” value is “A (GI50 < 50 nM)”.
The entry for `C=CC(=O)Nc1cc(Nc2cc(N3OCC[C@@H]3c3cccc(F)c3)ncn2)c(OC)cc1N1CCC(N2CCOCC2)CC1` [Example 38, N-(5-((6-((R)-3-(3-fluorophenyl)isoxazolidine-2-yl)pyrimidine-4-yl)amino)-4-methoxy-2-(4-morpholinopiperidine-1-yl)phenyl) acrylamide] is “A (GI50 < 50 nM)”; for `C=CC(=O)Nc1cc(Nc2cc(N3OCC[C@@H]3c3ccc(Cl)cc3)ncn2)c(OC)cc1N1CCC(N2CCN(C3CC3)CC2)CC1` [Example 58, N-(5-((6-((R)-3-(4-chlorophenyl)isoxazolidine-2-yl)pyrimidine-4-yl)amino)-2-(4-(4-cyclopropylpiperazine-1-yl)piperidine-1-yl)-4-methoxyphenyl) acrylamide] it is “A (GI50 < 50 nM)”.
As for `C=CC(=O)Nc1cc(Nc2cc(N3OCC[C@@H]3Cc3cccc(F)c3C)ncn2)c(OC)cc1N1CCC(N2C[C@@H]3C[C@H]2CO3)CC1` [compound 1040, N-(2-(4-((1S,4S)-2-oxa-5-azabicyclo [2.2.1]heptane-5-yl)piperidine-1-yl)-5-((6-((S)-3-(3-fluoro-2-methylbenzyl)isoxazolidine-2-yl)pyrimidine-4-yl)amino)-4-methoxyphenyl) acrylamide], the “Ba/F3 (NPH) Activity” value is recorded as “A (GI50 < 50 nM)”.
The entry for `C=CC(=O)Nc1cc(Nc2cc(N3OCC[C@@H]3c3cc(F)cc(F)c3)ncn2)c(OC)cc1N1CCC(N2CCN(C3CCC3)CC2)CC1` [Example 68, N-(2-(4-(4-cyclobutylpiperazine-1-yl)piperidine-1-yl)-5-((6-((R)-3-(3,5-difluorophenyl)isoxazolidine-2-yl)pyrimidine-4-yl)amino)-4-methoxyphenyl) acrylamide] is “A (GI50 < 50 nM)”.
Take `C=CC(=O)Nc1cc(Nc2cc(N3OCC[C@@H]3c3cccc(F)c3Cl)ncn2)c(OC)cc1N1CCC(N2CC3CCC(C2)N3C2CC2)CC1` [Example 142, N-(5-((6-((R)-3-(2-chloro-3-fluorophenyl)isoxazolidine-2-yl)pyrimidine-4-yl)amino)-2-(4-(8-cyclopropyl-3,8-diazabicyclo[3.2.1]octan-3-yl)piperidine-1-yl)-4-methoxyphenyl) acrylamide]: the “Ba/F3 (NPH) Activity” value is recorded as “A (GI50 < 50 nM)”.
The entry for `C=CC(=O)Nc1cc(Nc2cc(N3OCC[C@@H]3c3cccc(C)c3F)ncn2)c(OC)cc1N(C)CCOC` [compound 319, N-(5-((6-((R)-3-(2-fluoro-3-methylphenyl)isoxazolidine-2-yl)pyrimidine-4-yl)amino)-4-methoxy-2-((2-methoxyethyl) (methyl)amino)phenyl)acrylamide] is “B (50 nM ≤ GI50 < 500 nM)”.
The entry for `C=CC(=O)Nc1cc(Nc2cc(N3OCC[C@@H]3c3cc(F)cc(F)c3)ncn2)c(OC)cc1N1CCC(N2C[C@@H](C)O[C@@H](C)C2)CC1` [Example 266, N-(5-((6-((R)-3-(3,5-difluorophenyl)isoxazolidine-2-yl)pyrimidine-4-yl)amino)-2-(4-((2S,6R)-2,6-dimethylmorpholino)piperidine-1-yl)-4-methoxyphenyl) acrylamide] is “A (GI50 < 50 nM)”; for `C=CC(=O)Nc1cc(Nc2cc(N3OCC[C@@H]3c3ccc4ccccc4c3)ncn2)c(OC)cc1N1CCC(N2C[C@H]3C[C@@H]2CO3)CC1` [compound 557, N-(2-(4-((1R,4R)-2-oxa-5-azabicyclo[2.2.1]heptane-5-yl)piperidine-1-yl)-4-methoxy-5-((6-((R)-3-(naphthalene-2-yl)isoxazolidine-2-yl)pyrimidine-4-yl)amino)phenyl)acrylamide] it is “B (50 nM ≤ GI50 < 500 nM)”.
For the compound `C=CC(=O)Nc1cc(Nc2cc(N3OCC[C@@H]3c3ccc(F)c(F)c3)ncn2)c(OC)cc1N1CCC(N2CCN(C(C)C)CC2)CC1` [compound 501, N-(5-((6-((R)-3-(3,4-difluorophenyl)isoxazolidine-2-yl)pyrimidine-4-yl)amino)-2-(4-(4-isopropylpiperazine-1-yl)piperidine-1-yl)-4-methoxyphenyl) acrylamide], the “Ba/F3 (NPH) Activity” value was “A (GI50 < 50 nM)”.
The value for `C=CC(=O)Nc1cc(Nc2cc(N3OCC[C@@H]3c3ccc(F)c(Cl)c3)ncn2)c(OC)cc1N1C[C@@H]2CCN(C)[C@@H]2C1` [compound 316, N-(5-((6-((R)-3-(3-chloro-4-fluorophenyl)isoxazolidine-2-yl)pyrimidine-4-yl)amino)-4-methoxy-2-((3aS,6aS)-1-methylhexahydropyrrolo [3,4-b]pyrrole-5(1H)-yl)phenyl)acrylamide] was “A (GI50 < 50 nM)”; that for `C=CC(=O)Nc1cc(Nc2cc(N3OCC[C@@H]3c3ccc(F)c(F)c3F)ncn2)c(OC)cc1N1CC[C@@H](N(C)C)C1` [compound 622, N-(2-((R)-3-(dimethylamino)pyrolidine-1-yl)-4-methoxy-5-((6-((R)-3-(2,3,4-trifluorophenyl)isoxazolidine-2-yl)pyrimidine-4-yl)amino)phenyl)acrylamide] was “C (500 nM ≤ GI50 < 5000 nM)”; that for `C=CC(=O)Nc1cc(Nc2cc(N3OCC[C@@H]3Cc3ccc(C(F)(F)F)cc3)ncn2)c(OC)cc1N1CCC(N2C[C@@H]3C[C@H]2CO3)CC1` [compound 1052, N-(2-(4-((1S,4S)-2-oxa-5-azabicyclo [2.2.1]heptane-5-yl)piperidine-1-yl)-4-methoxy-5-((6-((S)-3-(4-(trifluoromethyl)benzyl)isoxazolidine-2-yl)pyrimidine-4-yl)amino)phenyl) acrylamide] was “A (GI50 < 50 nM)”.
The value for `C=CC(=O)Nc1cc(Nc2cc(N3OCC[C@@H]3Cc3cccc(F)c3C)ncn2)c(OC)cc1N1CCC(N2CCN(C3CC3)CC2)CC1` [compound 999, N-(2-(4-(4-cyclopropylpiperazine-1-yl)piperidine-1-yl)-5-((6-((S)-3-(3-fluoro-2-methylbenzyl)isoxazolidine-2-yl)pyrimidine-4-yl)amino)-4-methoxyphenyl) acrylamide] was “A (GI50 < 50 nM)”; that for `C=CC(=O)Nc1cc(Nc2cc(N3OCC[C@@H]3c3cccc(Cl)c3F)ncn2)c(OC)cc1N1CCC(N2CCN(C(C)C)CC2)CC1` [compound 707, N-(5-((6-((R)-3-(3-chloro-2-fluorophenyl)isoxazolidine-2-yl)pyrimidine-4-yl)amino)-2-(4-(4-isopropylpiperazine-1-yl)piperidine-1-yl)-4-methoxyphenyl) acrylamide] was “A (GI50 < 50 nM)”.
On to `C=CC(=O)Nc1cc(Nc2cc(N3OCC[C@@H]3c3cccc(Cl)c3)ncn2)c(OC)cc1N1CCC(N2CC[C@@H](N(C)C)C2)CC1` [compound 413, N-(5-((6-((R)-3-(3-chlorophenyl)isoxazolidine-2-yl)pyrimidine-4-yl)amino)-2-(4-((R)-3-(dimethylamino)pyrolidine-1-yl)piperidine-1-yl)-4-methoxyphenyl) acrylamide], for which the “Ba/F3 (NPH) Activity” value is “A (GI50 < 50 nM)”.
